Source: publication PMC3598492, “Cannabinoid receptor type 2 (CB2)-selective N-aryl-oxadiazolyl-propionamides: synthesis, radiolabelling, molecular modelling and biological evaluation” (Organic and Medicinal Chemistry Letters, 2012)
Like-named read-outs stand apart in the source and are kept apart here.

Tests used:
hCB2 = target: T1, hCB2 (Homo sapiens, UniProt P34972); test: Competitive [3H]CP55,940 binding on membrane homogenates of hCB2-CHO cells; settings: for Binding to hCB2 in words: hCB2-CHO; for Selectivity, pKi (CB2) – pKi (CB1): pKi = -log (Ki)
T1 construct: host or cells: CHO (hCB2-CHO), crude membrane homogenates
Protocol: (§1) CHO cell lines stably transfected with human CB1 (hCB1-CHO; obtained from Euroscreen, Gosselies, Belgium) or human CB2 (hCB2-CHO; obtained from Paul L. Prather, Department of Pharmacology and Toxicology, College of Medicine, University of Arkansas for Medical Sciences, USA) were cultured in Ham's F12 medium or Dulbecco's modified Eagle's medium (DMEM) with 10% fetal calf serum, 100 IU/mL penicillin, 100 μg/mL streptomycin and 250 or 400 μg/mL of the selection antibiotic Geneticin (G418), respectively. The cells were cultured in a humidified atmosphere with 5% CO2 at 37°C. Confluent cell layers of 175-cm^2 flasks were scraped; cells were harvested by centrifugation (800 rpm, 3 min), counted by trypan blue staining, suspended in 200 μL of 50 mM tris(hydroxymethyl)aminomethane (TRIS; pH 7.4) at 4°C and stored at −32°C until the binding experiment.
(§2) Competitive binding experiments were performed with crude membrane homogenates obtained from hCB1-CHO or hCB2-CHO cells as described above. […] Incubations were terminated by rapid filtration through a GF-B glass fibre filter pre-incubated for 90 min at room temperature in freshly prepared 0.5% polyvinylpyrrolidone + 0.1% Tween 20 solution using a 48-well cell harvester (Brandel, Gaithersburg, MD, USA).
The corresponding inhibition constants (Ki) of test compounds were derived from the IC50 values using the Cheng-Prusoff equation [49]. All binding experiments were performed in triplicates, and data are given as mean values from independent experiments.

hCB1 = target: T2, hCB1 (Homo sapiens, UniProt P21554); test: Competitive [3H]CP55,940 binding on membrane homogenates of hCB1-CHO cells
T2 construct: host or cells: CHO (hCB1-CHO), crude membrane homogenates
Protocol: as §1, §2
Binding data were analysed using GraphPad Prism version 2.01 (GraphPad Software, Inc., San Diego, CA, USA) by non-linear regression to provide estimates of the half maximal inhibitory concentration (IC50) values and the […]. […] The corresponding inhibition constants (Ki) of test compounds were derived from the IC50 values using the Cheng-Prusoff equation [49]. All binding experiments were performed in triplicates, and data are given as mean values from independent experiments.

[1] = target: T3, CB2 receptors in mouse spleen tissue (Mus musculus, UniProt P47936); test: Autoradiographic displacement of [3H]CP55,940 on coronal mouse spleen sections; type: binding; settings: for Displacement of the specific binding of 6 nM [3H]CP55,940: mouse spleen sections, HD regions
T3 construct: 12-μm-thick coronal sections obtained from the spleens of three animals; from tissue; host or cells: spleen sections of female CD-1 mice
Protocol: Animal experiments were performed under procedures approved by the State of Saxony Animal Care and Use Committee and conducted in accordance with the German Law for the Protection of Animals. Female CD-1 mice (10 to 12 weeks old, 20 to 25 g), obtained from the Medizinisch-Experimentelles Zentrum der Universität Leipzig (Leipzig, Germany), were used for the experiments.
The animals were anesthetized and sacrificed, and their spleens were rapidly removed and frozen in isopentane at −35°C. The spleens were brought to −15°C in a cryostat (Microm International GmbH, Walldorf, Germany), and a series of 12-μm-thick coronal sections obtained from the spleens of three animals were collected in parallel on microscopic glass slides. The sections were dried at room temperature and stored at −35°C until they were processed for receptor binding autoradiography.
For autoradiographic experiments, the slides were brought to room temperature, dried in a stream of cold air, pre-incubated in a binding buffer (50 mM TRIS (pH 7.4) at 21°C, 5% BSA) for 15 min at room temperature and dried again in a stream of cold air. […] Samples were washed twice for 30 min at 4°C in 50 mM TRIS (pH 7.4) at 4°C, containing 1% BSA, dipped briefly in ice-cold deionized water (5 s), dried in a stream of cold air and exposed along with [^3H] standards (Amersham/GE Healthcare, Piscataway, NJ, USA) for 14 days to [^3H]-sensitive screen plates (Fuji Photo Film, Co. Ltd., Tokyo, Japan).
The image plates were analysed using a BAS-1800II system bioimaging analyser (Fuji Photo Film, Co. Ltd., Tokyo, Japan). Scan data were visualized and processed by computer-assisted microdensitometry (Aida version 2.31, Raytest Isotopenmessgeräte GmbH, Straubenhardt, Germany). Irregular regions of interest (ROIs) were drawn on selected areas of the spleen labelled as red pulp (low-density binding) and white pulp (high-density binding) according to Lynn and Herkenham and Massi et al..

[2] = read-out: Affinity (Ki) towards hCB2
[3] = read-out: Affinity (Ki) towards hCB1

T2 sequence (P21554 whole entry): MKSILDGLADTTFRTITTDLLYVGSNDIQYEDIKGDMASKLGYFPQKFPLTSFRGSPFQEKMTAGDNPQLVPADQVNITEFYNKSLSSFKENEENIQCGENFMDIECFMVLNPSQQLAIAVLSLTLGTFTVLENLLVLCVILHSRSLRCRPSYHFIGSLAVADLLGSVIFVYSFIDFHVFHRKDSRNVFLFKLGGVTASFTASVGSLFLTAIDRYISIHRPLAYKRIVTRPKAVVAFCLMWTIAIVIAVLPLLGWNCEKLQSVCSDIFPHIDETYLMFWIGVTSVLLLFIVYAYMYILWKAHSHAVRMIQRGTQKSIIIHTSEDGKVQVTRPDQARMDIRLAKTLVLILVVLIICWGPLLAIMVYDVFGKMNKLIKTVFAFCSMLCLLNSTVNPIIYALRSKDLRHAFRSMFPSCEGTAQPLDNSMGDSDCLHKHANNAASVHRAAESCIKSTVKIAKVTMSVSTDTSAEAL
T3 sequence (P47936 whole entry): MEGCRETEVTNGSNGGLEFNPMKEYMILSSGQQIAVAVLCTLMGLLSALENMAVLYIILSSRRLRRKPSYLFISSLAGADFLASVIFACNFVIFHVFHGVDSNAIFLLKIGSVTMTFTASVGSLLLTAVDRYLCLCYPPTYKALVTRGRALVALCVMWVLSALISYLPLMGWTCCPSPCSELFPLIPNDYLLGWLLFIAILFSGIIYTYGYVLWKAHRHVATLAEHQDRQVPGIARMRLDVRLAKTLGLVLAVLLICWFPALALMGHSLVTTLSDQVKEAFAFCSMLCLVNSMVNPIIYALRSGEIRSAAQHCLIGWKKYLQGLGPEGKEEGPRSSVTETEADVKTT
T1 sequence (P34972 whole entry): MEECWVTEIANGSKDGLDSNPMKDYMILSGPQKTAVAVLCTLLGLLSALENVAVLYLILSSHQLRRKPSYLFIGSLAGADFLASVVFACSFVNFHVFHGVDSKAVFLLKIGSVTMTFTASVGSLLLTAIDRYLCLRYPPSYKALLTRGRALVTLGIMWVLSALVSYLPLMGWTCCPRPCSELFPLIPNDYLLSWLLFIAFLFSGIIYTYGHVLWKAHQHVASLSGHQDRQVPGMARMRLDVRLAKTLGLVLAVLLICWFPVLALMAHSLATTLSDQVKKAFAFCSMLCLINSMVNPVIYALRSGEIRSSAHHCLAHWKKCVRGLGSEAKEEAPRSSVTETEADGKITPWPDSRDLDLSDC

Compound	Binding to hCB2 in words (hCB2)	Ki (hCB2; [2])	other results
CC(C)(C)c1cc(NC(=O)CCc2nc(-c3ccc(Br)nc3)no2)no1 [Compound 1a, 3-(3-(6-Bromopyridin-3-yl)-1,2,4-oxadiazol-5-yl)-N-(5-tert-butylisoxazol-3-yl)propanamide]	high affinity	14.4 nM	
CC(C)(C)c1cc(NC(=O)CCc2nc(-c3ccc(F)nc3)no2)no1 [Compound 1b, 3-(3-(6-Fluoropyridin-3-yl)-1,2,4-oxadiazol-5-yl)-N-(5-tert-butylisoxazol-3-yl)propanamide]	low affinity		Ki (hCB2; hCB2 expressed in CHO cells, 0.5 nM [3H]CP55,940, Cheng-Prusoff, read-out: Affinity (Ki) towards hCB2): > 100000 nM
N#Cc1cc(F)ccc1-c1noc(CCC(=O)Nc2cnc3ccccc3c2)n1 [Compound 2a, 3-(3-(2-Cyano-4-fluorophenyl)-1,2,4-oxadiazol-5-yl)-N-(quinolin-3-yl)propanamide]		722 nM	Fold lower hCB2 affinity (hCB2; in comparison to 6a): approximately 100 fold; Binding to hCB1 in words (hCB1; hCB1-CHO): could not be observed
O=C(CCc1nc(-c2ccc(F)nc2)no1)Nc1cnc2ccccc2c1 [Compound 2b, 3-(3-(6-Fluoropyridin-3-yl)-1,2,4-oxadiazol-5-yl)-N-(quinolin-3-yl)propanamide]	low affinity	2290 nM	Binding to hCB1 in words (hCB1; hCB1-CHO): could not be observed
O=C(CCc1nc(-c2ccc(Br)nc2)no1)Nc1cnc2ccccc2c1 [Compound 2c, 3-(3-(6-Bromopyridin-3-yl)-1,2,4-oxadiazol-5-yl)-N-(quinolin-3-yl)propanamide]	low affinity	> 100000 nM	Binding to hCB1 in words (hCB1; hCB1-CHO): could not be observed
CCn1ccc2cc(NC(=O)CCc3nc(-c4ccc(F)nc4)no3)ccc21 [Compound 3b, 3-(3-(6-Fluoropyridin-3-yl)-1,2,4-oxadiazol-5-yl)-N-(1-ethyl-1H-indol-5-yl)-propanamide]	low affinity	> 100000 nM	
O=C(CCc1nc(-c2ccc(F)cc2Br)no1)Nc1ccc2[nH]c3ccccc3c2c1 [Compound 4e, 3-(3-(2-Bromo-4-fluorophenyl)-1,2,4-oxadiazol-5-yl)-N-(9H-carbazol-3-yl)propanamide]	no binding	> 100000 nM	
Cn1c2ccccc2c2cc(NC(=O)CCc3nc(-c4ccc(F)cc4Br)no3)ccc21 [Compound 5e, 3-(3-(2-Bromo-4-fluorophenyl)-1,2,4-oxadiazol-5-yl)-N-(9-methyl-9H-carbazol-3-yl)propanamide]		250 nM	
CCn1c2ccccc2c2cc(NC(=O)CCc3nc(-c4ccc(F)nc4)no3)ccc21 [Compound 6b, 3-(3-(6-Fluoropyridin-3-yl)-1,2,4-oxadiazol-5-yl)-N-(9-ethyl-9H-carbazol-3-yl)propanamide]	low affinity	135 nM	Selectivity, pKi (CB2) – pKi (CB1) (hCB2; hCB2 versus hCB1): 1.06; Ki (hCB1; [3]): 1560 nM
CCn1c2ccccc2c2cc(NC(=O)CCc3nc(-c4ccc(Br)nc4)no3)ccc21 [Compound 6c, 3-(3-(6-Bromopyridin-3-yl)-1,2,4-oxadiazol-5-yl)-N-(9-ethyl-9H-carbazol-3-yl)propanamide]	low affinity	1920 nM	
CCn1c2ccccc2c2cc(NC(=O)CCc3nc(-c4ccc([N+](=O)[O-])cc4F)no3)ccc21 [Compound 6d, 3-(3-(2-Fluoro-4-nitrophenyl)-1,2,4-oxadiazol-5-yl)-N-(9-ethyl-9H-carbazol-3-yl)propanamide]			Ki (hCB2): 12.5 nM; Selectivity, pKi (CB2) – pKi (CB1) (hCB2; hCB2 versus hCB1): 2.78; Ki (hCB1; [3]): 7470 nM
CCn1c2ccccc2c2cc(NC(=O)CCc3nc(-c4ccc(F)cc4Br)no3)ccc21 [Compound 6e, 3-(3-(2-Bromo-4-fluorophenyl)-1,2,4-oxadiazol-5-yl)-N-(9-ethyl-9H-carbazol-3-yl)propanamide]			receptor occupancy at 1 µM ([1]; read-out: Fractional occupancy of [3H]CP55,940 binding sites calculated by Gaddum equation): 97%; Selectivity over hCB1 (hCB2; hCB2 versus hCB1): more than 1,000 fold; Ki (hCB1; hCB1-CHO, read-out: Ki hCB1): > 1000 nM
CCn1c2ccccc2c2cc(NC(=O)CCc3nc(-c4ccc([N+](=O)[O-])cc4C#N)no3)ccc21 [Compound 6f, 3-(3-(2-Cyano-4-nitrophenyl)-1,2,4-oxadiazol-5-yl)-N-(9-ethyl-9H-carbazol-3-yl)propanamide]			Ki (hCB2): 5.89 nM
CCn1c2ccccc2c2cc(NC(=O)CCc3nc(-c4ccc([N+](=O)[O-])cc4Br)no3)ccc21 [Compound 6g, 3-(3-(2-Bromo-4-nitrophenyl)-1,2,4-oxadiazol-5-yl)-N-(9-ethyl-9H-carbazol-3-yl)propanamide]			Ki (hCB2): 2.38 nM; Selectivity, pKi (CB2) – pKi (CB1) (hCB2; hCB2 versus hCB1): 2.22; Ki (hCB1; [3]): 397 nM
CCn1c2ccccc2c2cc(NC(=O)CCc3nc(-c4ccc(N)cc4F)no3)ccc21 [Compound 6i, 3-(3-(4-Amino-2-fluorophenyl)-1,2,4-oxadiazol-5-yl)-N-(9-ethyl-9H-carbazol-3-yl)propanamide]		> 100000 nM	
CCn1c2ccccc2c2cc(NC(=O)CCc3nc(-c4ccc(F)cc4O)no3)ccc21 [Compound 6j, 3-(3-(4-Fluoro-2-hydroxyphenyl)-1,2,4-oxadiazol-5-yl)-N-(9-ethyl-9H-carbazol-3-yl)propanamide]		5710 nM	
CCn1c2ccccc2c2cc(NC(=O)CCc3nc(-c4ccc(F)cc4OCCF)no3)ccc21 [Compound 6k, 3-(3-(4-Fluoro-2-(2-fluoroethoxy)phenyl)-1,2,4-oxadiazol-5-yl)-N-(9-ethyl-9H-carbazol-3-yl)-propanamide]		3190 nM	
CCn1c2ccccc2c2cc(NC(=O)CCc3nc(-c4ccc(F)cc4OC)no3)ccc21 [Compound 6l, 3-(3-(4-Fluoro-2-methoxyphenyl)-1,2,4-oxadiazol-5-yl)-N-(9-ethyl-9H-carbazol-3-yl)-propanamide]		223 nM	
CCn1c2ccccc2c2cc(NC(=O)CCc3nc(-c4ccc(OC)cc4Br)no3)ccc21 [Compound 6m, 3-(3-(2-Bromo-4-methoxyphenyl)-1,2,4-oxadiazol-5-yl)-N-(9-ethyl-9H-carbazol-3-yl)propanamide]		> 100000 nM	
O=C(CCc1nc(-c2ccc(F)cc2F)no1)Nc1cn(Cc2ccccc2)c2ccccc12 [Compound 7h, 3-(3-(2,4-Difluorophenyl)-1,2,4-oxadiazol-5-yl)-N-(1-benzyl-1H-indol-3-yl)-propanamide]	lost	> 100000 nM	Binding to hCB1 in words (hCB1; hCB1-CHO): Weak affinity; Ki (hCB1; [3]): 6010 nM
Cc1c(C(=O)NN2CCCCC2)nn(-c2ccc(Cl)cc2Cl)c1-c1ccc(Cl)cc1 [SR141716A]			Specific CP55,940 binding remaining ([1]; 1 μM compound, 6 nM [3H]CP55,940, mouse spleen): 94%; Displacement of the specific binding of 6 nM [3H]CP55,940 ([1]; 1 μM compound): nearly no displacement
CCCCCCC(C)(C)c1ccc([C@@H]2C[C@H](O)CC[C@H]2CCCO)c(O)c1 [^3H]CP55,940]			Density of specific binding sites ([1]; 6 nM [3H]CP55,940, mouse spleen): 150 ± 25 fmol/mg wet weight; Specific binding as share of total binding ([1]; mouse spleen autoradiography): approximately 90%
SR144528			Displacement of the specific binding of 6 nM [3H]CP55,940 ([1]; 1 μM compound): 78%
